This is an account of results in US20260001853A1, “ASCORBIC ACID DERIVATIVE OR SALT THEREOF, AND COSMETIC THEREOF” (SEIWA KASEI COMPANY, LIMITED, priority 2022, published 2026).

For data set [1], the system named is Normal human dermal fibroblasts (NHDF). As to the kind of experiment: Hyaluronic acid production promoting effect (ELISA of supernatant). It is filed as cell-based. Particulars: amount of hyaluronic acid produced, % with control group taken as 100%; sample at 10 mmol/L or less, 48 hours, N=3. The protocol:
Normal human dermal fibroblasts (NHDF) were prepared in D-MEM containing 5% (v/v) fetal bovine serum to a cell density of 2.5× 10^4 cells/well, and then pre-incubated on a 96-well plate for 24 hours. After removing the medium, samples prepared in serum-free D-MEM were added to each well and cultured for 48 hours. After the culture was completed, the amount of hyaluronic acid in the supernatant was quantified by ELISA method. The measurement was performed with N=3.
The amount of hyaluronic acid produced when the samples were measured at a concentration of 10 mmol/L or less was compared with that of the control group, and the results (% values when the control group is taken as 100%) are shown in Tables 18 to 20 based on the following criteria. • <100%: ± • 100-120%: + • 120-150%: ++ • 150%: +++
In general terms: In an ELISA, binding on a coated surface is turned into a signal by an enzyme label.

Data set [2] relates to Normal human dermal fibroblasts. As to the kind of experiment: Collagen production promoting effect (ELISA of supernatant). It is filed as cell-based. Particulars: amount of collagen produced, % with control group taken as 100%; sample at 10 mmol/L or less, 48 hours, N=3. How it is done: Normal human dermal fibroblasts were prepared in D-MEM containing 5% (v/v) fetal bovine serum to a cell density of […] cells/well, and pre incubated on a 96-well plate for 24 hours. After removing the medium, samples prepared to a predetermined concentration in D-MEM containing 5% (v/v) fetal bovine serum were added to each well and cultured for 48 hours. After completion of the culture, the amount of free collagen in the supernatant was quantified by ELISA method. The measurement was performed with N=3.
The amount of collagen produced when the samples were measured at a concentration of 10 mmol/L or less was compared with that of the control group, and the results (% values when the control group is taken as 100%) are shown in Tables 15 to 17 based on the following criteria. • <100%: ± • 100-120%: + • 120%: ++

The next data set has as its system B16 melanoma 4A5 cells. As to the kind of experiment: Melanin production inhibitory effect (theophylline-induced melanin production). The data set is classed as cell-based, mouse. As to conditions: melanin production inhibition rate, sample at a concentration of 10 mM or less, 3 days culture, theophylline 1 mmol/L, N=4. The protocol: As a test of the whitening effect, the effect on theophylline-induced melanin production in B16 melanoma 4A5 cells was evaluated for the ascorbic acid derivatives of the present invention according to the following procedure. A similar evaluation was also performed for a known ascorbic acid derivative for comparison. The results are shown in Tables 9 to 11. • (1) B16 mouse melanoma 4A5 cells were seeded in a 48-well plate at a cell density of 8.0×10^3 cells/well. • (2) After culturing for 24 hours in Dulbecco's modified Eagle's medium (manufactured by SIGMA, hereinafter abbreviated as “D-MEM”) containing 10% fetal bovine serum, the medium was replaced with D-MEM containing 10% fetal bovine serum containing theophylline (final concentration 1 mmol/L) and a specified concentration of a sample. • (3) After culturing for 3 days in the presence of the sample, the medium was removed using an aspirator, distilled water was added, and the cells were disrupted by ultrasonication. • (4) The amount of protein was then quantified using a BCA protein assay kit (manufactured by PIERCE), and the amount of melanin produced was measured by an alkali solubilization method. Sodium hydroxide was added to the cell lysate to a final concentration of 1 mol/L, and the solution was dissolved by heating (60° C., 30 minutes), thereafter the absorbance at 405 nm was measured using a microplate reader. The amount of melanin was calculated from a calibration curve prepared using synthetic melanin (SIGMA) as a standard. The amount of melanin per unit protein was calculated by dividing the amount of melanin by the amount of protein. • (5) The melanin production inhibition rate was calculated using the following formula.
[In the formula, A represents the amount of melanin per unit protein (g/g) when the sample was added, B represents the amount of melanin per unit protein (g/g) in the normal group, and C represents the amount of melanin per unit protein (g/g) in the control group.]
The melanin production inhibition rate when the sample was measured at a concentration of 10 mM or less is expressed as follows. The measurement was performed with N=4. • <20%: ± • 20-40%: + • 40-60%: ++ • 60-100%: +++

Data set [3] is described as follows: Stability test (residual rate by HPLC, odor, coloring). It is filed as physicochemical. As to conditions: 1% aqueous solution; for Coloring / Odor: total score of 10 panelists. The protocol: With a dilute potassium hydroxide aqueous solution, 1% aqueous solution of each test sample was adjusted to pH 6, placed in a 50 mL screw tube, sealed, […], and then subjected to HPLC measurement (using a liquid chromatograph manufactured by Shimadzu Corporation) to determine the residual rate from the peak area. The residual rate, odor, and coloring degree were evaluated according to the following methods and criteria.
Residual rate: • ⊚: 90% or more • ◯: 80% or more, less than 90% • Δ: 60% or more, less than 80% • x: 20% or more, less than 60% • xx: Less than 20%
Evaluation was made by 10 panelists according to the following criteria. • 3: Almost odorless • 2: There is a slight strange odor. • 1: A strong odor is detected.
Based on the evaluation results, the following classification was made: • ⊚: Total score of 10 panelists is 25 or more • ◯: Total score of 10 panelists is 20-24 • Δ: Total score of 10 panelists is 16-19 • x: The total score of 10 panelists is 15 or less
Evaluation was made by 10 panelists according to the following criteria. • 3: Almost no change compared to immediately after preparation. • 2: Color changes compared to immediately after preparation. • 1: Strongly colored compared to immediately after preparation.
Based on the evaluation results, the following classification was made: • ◯: Total score of 10 panelists is 25 or more • Δ: Total score of 10 panelists is 16-24 • x: The total score of 10 panelists is 15 or less

The mark [4] stands for this setting: pH 6, stored at 50° C., four weeks later.
Where [5] appears, read: pH 6, stored at 50° C., two weeks later.

SMILES strings stand for the structures.

In the case of `CCCCCCCCCCCCOC1=C(OCC(C)(C)O)C(=O)O[C@@H]1[C@@H](O)CO` [Synthesis Example 8, 2-O-(2-hydroxyisobutyl)-3-O-dodecyl ascorbic acid], in data set [1], the “Hyaluronic acid production promoting effect” value is reported as “+++ (150%: +++)”. In addition, in data set [2], the “Collagen production promoting effect” value is “++ (120%: ++)”. Also, the “Melanin production inhibition effect” value in the data set on B16 melanoma 4A5 cells was “++ (40-60%: ++)”. For the same molecule, in data set [3] (pH 6, 50° C., initial), the Residual rate entry is “⊚ (⊚: 90% or more)”, the Coloring result was “◯ (◯: Total score of 10 panelists is 25 or more)” and the Odor result is “◯ (◯: Total score of 10 panelists is 20-24)”. Moreover, in data set [3] (setting [4]), the Residual rate entry was “⊚ (⊚: 90% or more)”, the Coloring result is “◯ (◯: Total score of 10 panelists is 25 or more)” and the Odor result is “◯ (◯: Total score of 10 panelists is 20-24)”. In data set [3] (setting [5]), the Residual rate entry was “⊚ (⊚: 90% or more)”, the Coloring result is “◯ (◯: Total score of 10 panelists is 25 or more)” and the Odor result is given as “◯ (◯: Total score of 10 panelists is 20-24)”.
For the molecule `CCCCOCC(O)COC1=C(OCC(C)(C)O)C(=O)OC1C(O)CO` (stereo not drawn) [Synthesis Example 14, 2-O-(2-hydroxyisobutyl)-3-O-(2-hydroxy-3-O-butyl) ascorbic acid], the “Hyaluronic acid production promoting effect” value in data set [1] is “++ (120-150%: ++)”. Besides, the “Collagen production promoting effect” value in data set [2] is on record as “++ (120%: ++)”. Further, the “Melanin production inhibition effect” value in the data set with B16 melanoma 4A5 cells was “++ (40-60%: ++)”. For the same molecule, in data set [3] (pH 6, 50° C., initial), the Residual rate entry is “⊚ (⊚: 90% or more)”, the Coloring entry was “◯ (◯: Total score of 10 panelists is 25 or more)” and the Odor entry is reported as “⊚ (⊚: Total score of 10 panelists is 25 or more)”. Besides, in data set [3] (setting [4]), the Residual rate result is “⊚ (⊚: 90% or more)”, the Coloring result is “◯ (◯: Total score of 10 panelists is 25 or more)” and the Odor result is “◯ (◯: Total score of 10 panelists is 20-24)”. In data set [3] (setting [5]), the Residual rate result is listed as “⊚ (⊚: 90% or more)”, the Coloring entry is listed as “◯ (◯: Total score of 10 panelists is 25 or more)” and the Odor entry is given as “⊚ (⊚: Total score of 10 panelists is 25 or more)”.
Consider `CC(C)(O)COC1=C(OCC(C)(C)O)[C@@H]([C@@H](O)CO)OC1=O` [Synthesis Example 17, 2,3-di-O-(2-hydroxyisobutyl) ascorbic acid], for which, in data set [1], the “Hyaluronic acid production promoting effect” value is given as “++ (120-150%: ++)”. Further, the “Collagen production promoting effect” value in data set [2] is “++ (120%: ++)”. In the data set with B16 melanoma 4A5 cells, the “Melanin production inhibition effect” value is recorded as “+ (20-40%: +)”. In data set [3] (pH 6, 50° C., initial), the Residual rate entry is on record as “⊚ (⊚: 90% or more)”, the Coloring result is reported as “◯ (◯: Total score of 10 panelists is 25 or more)” and the Odor entry is on record as “◯ (◯: Total score of 10 panelists is 20-24)”. In data set [3] (setting [4]), the Residual rate result is “⊚ (⊚: 90% or more)”, the Coloring result is listed as “◯ (◯: Total score of 10 panelists is 25 or more)” and the Odor result is on record as “◯ (◯: Total score of 10 panelists is 20-24)”. Besides, in data set [3] (setting [5]), the Residual rate entry was “⊚ (⊚: 90% or more)”, the Coloring result was “◯ (◯: Total score of 10 panelists is 25 or more)” and the Odor result is given as “◯ (◯: Total score of 10 panelists is 20-24)”.
`CCCCCCCCCCCCCCOC1=C(OCC(C)(C)O)[C@@H]([C@@H](O)CO)OC1=O` [Synthesis Example 24, 2-O-tetradecyl-3-O-(2-hydroxyisobutyl) ascorbic acid]: the “Hyaluronic acid production promoting effect” value in data set [1] was “++ (120-150%: ++)”. Moreover, in data set [2], the “Collagen production promoting effect” value is “++ (120%: ++)”. Also, the “Melanin production inhibition effect” value with B16 melanoma 4A5 cells was “+++ (60-100%: +++)”. In data set [3] (pH 6, 50° C., initial), the Residual rate result is reported as “⊚ (⊚: 90% or more)”, the Coloring entry was “◯ (◯: Total score of 10 panelists is 25 or more)” and the Odor entry is “◯ (◯: Total score of 10 panelists is 20-24)”. In addition, in data set [3] (setting [4]), the Residual rate entry is “⊚ (⊚: 90% or more)”, the Coloring entry is on record as “◯ (◯: Total score of 10 panelists is 25 or more)” and the Odor entry is on record as “◯ (◯: Total score of 10 panelists is 20-24)”. In addition, in data set [3] (setting [5]), the Residual rate entry is recorded as “⊚ (⊚: 90% or more)”, the Coloring entry is “◯ (◯: Total score of 10 panelists is 25 or more)” and the Odor entry is “◯ (◯: Total score of 10 panelists is 20-24)”.
Consider `CCCCCCCCCCCCOCC(O)COC1=C(OCC(C)(C)O)C(C(O)CO)OC1=O` (stereo not drawn) [Synthesis Example 31, 2-O-(2-hydroxy-3-O-dodecyl)-3-O-(2-hydroxyisobutyl) ascorbic acid], for which the “Hyaluronic acid production promoting effect” value in data set [1] is “++ (120-150%: ++)”. Further, the “Collagen production promoting effect” value in data set [2] is “++ (120%: ++)”. The “Melanin production inhibition effect” value in the data set with B16 melanoma 4A5 cells is recorded as “+ (20-40%: +)”. Moreover, in data set [3] (pH 6, 50° C., initial), the Residual rate entry is “⊚ (⊚: 90% or more)”, the Coloring entry is “◯ (◯: Total score of 10 panelists is 25 or more)” and the Odor result is given as “⊚ (⊚: Total score of 10 panelists is 25 or more)”. Moreover, in data set [3] (setting [4]), the Residual rate entry was “⊚ (⊚: 90% or more)”, the Coloring entry is listed as “◯ (◯: Total score of 10 panelists is 25 or more)” and the Odor entry is listed as “◯ (◯: Total score of 10 panelists is 20-24)”. Moreover, in data set [3] (setting [5]), the Residual rate entry was “⊚ (⊚: 90% or more)”, the Coloring result was “◯ (◯: Total score of 10 panelists is 25 or more)” and the Odor entry is on record as “⊚ (⊚: Total score of 10 panelists is 25 or more)”.
Turning to `CCCCCCCCC(O)COC1=C(OCC(C)(C)O)C(=O)O[C@@H]1[C@@H](O)CO` (stereo partly drawn) [Synthesis Example 36, 2-O-(2-hydroxyisobutyl)-3-O-(2-hydroxydecyl) ascorbic acid], the “Hyaluronic acid production promoting effect” value in data set [1] is recorded as “++ (120-150%: ++)”. The “Collagen production promoting effect” value in data set [2] is “+ (100-120%: +)”. Also, the “Melanin production inhibition effect” value in the data set with B16 melanoma 4A5 cells is reported as “++ (40-60%: ++)”. The Residual rate entry in data set [3] (pH 6, 50° C., initial) was “⊚ (⊚: 90% or more)”; in data set [3] (setting [4]), “⊚ (⊚: 90% or more)”; in data set [3] (setting [5]) it was “⊚ (⊚: 90% or more)”. The Coloring result in data set [3] (pH 6, 50° C., initial) was “⊚”; in data set [3] (setting [4]) it was “◯ (◯: Total score of 10 panelists is 25 or more)”; in data set [3] (setting [5]), “◯ (◯: Total score of 10 panelists is 25 or more)”. Moreover, the Odor entry in data set [3] (pH 6, 50° C., initial) is “◯ (◯: Total score of 10 panelists is 20-24)”; in data set [3] (setting [4]), “◯ (◯: Total score of 10 panelists is 20-24)”; in data set [3] (setting [5]) it was “◯ (◯: Total score of 10 panelists is 20-24)”.
